Measured values as given in patent US5658916A, “Drug active on the central nervous system, a process for the preparation thereof and pharmaceutical compositions containing it” (Vita-Invest, S.A., priority 1994, dated 1997).
pKi: −log10 of the molar value. Read-outs that look alike come from different tables or passages of the source.

Columns and labels:
[1] = target: α1-adrenergic receptors; test: Displacement of 3H-prazosin binding to α1-adrenergic receptors (rat brain cortex); details: read-out: Displacement (Ki, nM) of the binding of 3H-prazosin to α1-adrenergic receptors, 3H-prazosin 0.5 nM, 37° C., 15 min, pH 7.7
Protocol: Binding to at adrenergen receptors
These were carried out as described by Morrow et al . […] Rat brain cortical tissue was obtained, with homogenization in 20 volumes of Tris-HCl buffer in ice (50 mM, pH=7.7, 4° C.). The homogenate was centrifuged (25,000 rpm/12 min at 4° C.) and the pellet was rehomogenized, being finally resuspended in 50 mM Tris-HCl buffer, pH=7.7 (dilution 1:200). […] The incubation (37° C., 15 min) was terminated by rapid filtering through Whatman GF/C filters, followed by washing twice with […] of Tris-HCl buffer, 50 mM.

[2] = target: T1, 5HT2 receptors (Rattus norvegicus, UniProt P14842); test: Displacement of 3H-ketanserine binding to 5HT2 receptors (front cortex of rat brain); details: 3H-ketanserine 0.5 nM, 37° C., 15 min
T1 construct: Front cortex of rat brain was prepared; from tissue; host or cells: rat brain frontal cortex, crude membrane homogenate
Protocol: These were carried out as described by Leysen et al (1978), with certain modifications. […] The incubation (37° C., 15 min) was terminated by rapid filtering through Whatman GF/C filters.

[3] = target: T2, D2 receptors (Rattus norvegicus, UniProt P61169); test: Displacement of 3H-spiroperidol binding to D2 receptors (striate tissue of rat brain)
T2 construct: Striate tissue of rat brain was prepared; from tissue; host or cells: rat brain striatum, crude membrane homogenate
Protocol: Studies on binding to D2 receptors.
These were carried out as described by Leysen et al (1978), with certain modifications. Striate tissue of rat brain was prepared, with homogenization in 20 volumes of Tris-HCl buffer in ice (50 mM, pH=7.7, 4° C.), The homogenate was centrifuged (40,000 g, 10 min) and the pellet was suspended in 10 volumes of cold buffer and recentrifuged. The final pellet was suspended in 10 volumes of 50 mM Tris-HCl buffer, with 120 mM of NaCl and 5 mM of […] (pH=7.7). The displacement studies were carried out with 25 μl of ^3 H-spiroperidol (0.2 nM, NEN), 25 μl of cold displacer and 200 μl of tissue. The incubation (37° C., 15 min) was terminated by rapid filtering through Whatman GF/C filters.

T2 sequence (P61169 whole entry): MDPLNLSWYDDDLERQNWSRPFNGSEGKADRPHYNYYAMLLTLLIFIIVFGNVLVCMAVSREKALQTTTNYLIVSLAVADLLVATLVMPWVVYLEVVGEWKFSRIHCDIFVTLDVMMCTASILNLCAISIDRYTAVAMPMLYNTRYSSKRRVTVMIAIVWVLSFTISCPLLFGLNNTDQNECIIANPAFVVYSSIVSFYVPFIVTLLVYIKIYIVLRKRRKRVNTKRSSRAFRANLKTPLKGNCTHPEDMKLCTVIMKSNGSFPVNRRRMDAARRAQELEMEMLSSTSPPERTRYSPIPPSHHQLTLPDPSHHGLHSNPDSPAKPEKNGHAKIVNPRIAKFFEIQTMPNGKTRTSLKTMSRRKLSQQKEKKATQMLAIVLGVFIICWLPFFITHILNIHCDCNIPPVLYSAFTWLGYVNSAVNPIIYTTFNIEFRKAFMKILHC
T1 sequence (P14842 whole entry): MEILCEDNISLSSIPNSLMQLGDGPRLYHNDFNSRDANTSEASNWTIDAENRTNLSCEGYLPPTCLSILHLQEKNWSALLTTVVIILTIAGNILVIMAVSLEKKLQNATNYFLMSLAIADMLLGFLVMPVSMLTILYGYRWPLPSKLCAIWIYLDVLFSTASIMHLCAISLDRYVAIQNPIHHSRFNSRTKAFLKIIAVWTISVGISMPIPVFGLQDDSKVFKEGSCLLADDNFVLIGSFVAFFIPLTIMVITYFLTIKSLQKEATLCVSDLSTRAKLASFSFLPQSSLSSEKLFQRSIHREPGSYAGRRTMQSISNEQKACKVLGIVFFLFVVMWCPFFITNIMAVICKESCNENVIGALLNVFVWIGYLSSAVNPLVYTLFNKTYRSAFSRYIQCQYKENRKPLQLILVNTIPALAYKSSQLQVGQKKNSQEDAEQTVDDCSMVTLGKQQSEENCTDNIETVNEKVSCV

Structure (SMILES) | Ki [1] | pKi [2] | pKi [3] | pKi ([3]; striate rat tissue, 3H-spiroperidol 0.2 nM, 37° C., 15 min, pH 7.7)
Cc1nc2n(c(=O)c1CCN1CC=C(c3noc4cc(F)ccc34)CC1)CCCC2 [Compound I, 3-{2-[4-(6-fluoro-benzo[d]isoxazol-3-yl)-3,6-dihydro-2H-pyridin-1-yl]-ethyl}-2-methyl-6,7,8,9-tetrahydropyrido[1,2-a]-pyrimidin-4-one] | 14.6 nM | 8.77 | 7.66 | –
Cc1nc2sccn2c(=O)c1CCN1CCC(=C(c2ccc(F)cc2)c2ccc(F)cc2)CC1 [Ritanserine, reference compound] | 29.6 nM | – | – | 7.32
